Measurements taken from patent US11753407B2, “Compounds for treating spinal muscular atrophy” (PTC Therapeutics, Inc., priority 2012, dated 2023).

What was measured:
[1] = tested on: Smn protein produced from the SMN2 gene; assay: Smn protein in tissues of neonatal Δ7 SMA mice; format: in vivo; settings: neonatal SMA Δ7 homozygous knockout mice, IP QD PND 3 to PND 9, brain, spinal cord
Description: This Smn protein assay compares tissues from test compound treated mice with those from DMSO vehicle treated mice to determine the increase in levels of Smn protein produced from the human SMN2 gene.
Protocol. The tissue samples in Safe-Lock tubes are weighed and the volume of RIPA buffer containing the protease inhibitor cocktail is added based on the weight to volume ratios for each type of tissue: Brain (50 mg/mL), Muscle (50 mg/mL) and Spinal Cord (25 mg/mL).
Tissues are homogenized using the TissueLyzer by bead milling. 5 mm stainless steel beads are added to the sample and shaken vigorously for 5 minutes at 30 Hz in the TissueLyzer. […] Fluorescence for each well of the plate at 665 nm and 620 nm is measured on an EnVision multilabel plate reader (Perkin-Elmer). The total protein in the tissue homogenate is measured using the BCA assay according to the manufacturer's protocol.
The normalized fluorescence signal is calculated for each sample, Blank and vehicle control well by dividing the signal at 665 nm by the signal at 620 nm. Normalizing the signal accounts for possible fluorescence quenching due to the matrix effect of the tissue homogenate. […] The ΔF value for each tissue sample well is divided by the total protein quantity (determined using the BCA assay) for that tissue sample. […]

[2] = tested on: neonatal SMA Δ7 homozygous knockout mice; assay: Righting reflex in neonatal Δ7 SMA mice; format: in vivo; settings: IP QD from PND 3, versus vehicle (FIG. 14)
Description: The functional change in righting reflex of neonatal SMA mice is used to determine whether treatment with a test compound improves righting reflex.
Protocol. SMA Δ7 homozygous knockout mice are dosed intraperitoneally (IP) with test compound or vehicle (100% DMSO) QD from PND 3 until the dose regimen is switched to an oral dose BID in 0.5% hydroxypropylmethyl cellulose (HPMC) with 0.1% Tween-80 at a dose 3.16-fold higher than the dose used for IP. The righting reflex time is measured as the time taken by a mouse to flip over onto its feet after being laid on its back. Righting reflex is measured five times for each mouse (allowing a maximal time of 30 sec for each try) with 5 minutes between each measurement. The righting reflex time for SMA Δ7 homozygous knockout mice treated with test compound or vehicle and age-matched heterozygous mice is measured on PND 10, 14 and 18 and plotted.

COc1ccc(-c2cc(=O)n3cc(N4CCNCC4)ccc3n2)cc1OC [Cpd 6, 2-(3,4-dimethoxyphenyl)-7-(piperazin-1-yl)-4H-pyrido[1,2-a]pyrimidin-4-one]
total protein normalized Smn level ([1]; muscle, skin (FIGS. 12a-d)): dose dependently increased in brain, spinal cord, muscle, and skin tissues | righting reflex [2]: improved compared to vehicle treated mice

Cc1cn2nc(-c3cc(=O)n4cc(N5CCN(C)CC5)ccc4n3)cc2c(C)n1 [Cpd 170, 2-(4,6-dimethylpyrazolo[1,5-a]pyrazin-2-yl)-7-(4-methylpiperazin-1-yl)-4H-pyrido[1,2-a]pyrimidin-4-one]
total protein normalized Smn level ([1]; muscle (FIGS. 12e-g)): dose dependently increased | righting reflex [2]: improved compared to vehicle treated mice
